Results taken from patent US7446201B2, “Substituted heteroaryl benzofuran acids” (Wyeth, priority 2003, dated 2008).
pIC50: −log10 of the molar value. Where a name gives a salt, the structure may show the parent alone.

Columns and labels:
[1] = molecular target: T1, recombinant human plasminogen activator inhibitor-1 (PAI-1) (Homo sapiens, UniProt P05121); assay: Primary Screen for the PAI-1 Inhibition; format: biochemical; settings: for pIC50: footnote b: determined by a modification of the Primary Screen for PAI-1 Inhibition; for inhibition at 25 µM: 25 μM test compound
T1 construct: purchased Molecular Innovations, Royal Oak, Mich
Description: Test compounds are dissolved in DMSO at a final concentration of 10 mM, then diluted 100× in physiologic buffer. The inhibitory assay is initiated by the addition of the test compound (1-100 μM final concentration, maximum DMSO concentration of 0.2%) in a pH 6.6 buffer containing 140 nM recombinant human plasminogen activator inhibitor-1 (PAI-1; Molecular Innovations, Royal Oak, Mich.). Following a 1 hour incubation at room temperature, 70 nM of recombinant human tissue plasminogen activator (tPA) is added, and the combination of the test compound, PAI-1 and tPA is incubated for an additional 30 minutes. Following the second incubation, Spectrozyme-tPA (American Diagnostica, Greenwich, Conn.), a chromogenic substrate for tPA, is added and absorbance read at 405 nm at 0 and 60 minutes. Relative PAI-1 inhibition is equal to the residual tPA activity in the presence of the test compound and PAI-1. Control treatments include the complete inhibition of tPA by PAI-1 at the molar ratio employed (2:1), and the absence of any effect of the test compound on tPA alone.

human PAI-1 = human PAI-1 (Homo sapiens, UniProt P05121); assay: Assay for Determining IC50 of Inhibition of PAI-1 (Antibody Assay); format: binding; settings: footnote a: determined by the Antibody Assay
Description: This assay is based upon the non-SDS dissociable interaction between tPA and active PAI-1. Assay plates are initially coated with human tPA (10 μg/ml). Test compounds are dissolved in DMSO at 10 mM, then diluted with physiologic buffer (pH 7.5) to a final concentration of 1-50 μM. Test compounds are incubated with human PAI-1 (50 ng/ml) for 15 minutes at room temperature. The tPA-coated plate is washed with a solution of 0.05% Tween 20 and 0.1% BSA, then the plate is blocked with a solution of 3% BSA. An aliquot of the test compound/PAI-1 solution is then added to the tPA-coated plate, incubated at room temperature for 1 hour, and washed. Active PAI-1 bound to the plate is assessed by adding an aliquot of a 1:1000 dilution of the 33B8 monoclonal antibody against human PAI-1, and incubating the plate at room temperature for 1 hour (Molecular Innovations, Royal Oak, Mich.). […] The plate is incubated 45 minutes at room temperature, and color development is determined at OD405 nm. The quantitation of active PAI-1 bound to tPA at varying concentrations of test compound is used to determine the IC50. Results are analyzed using a logarithmic best-fit equation. The assay sensitivity is 5 ng/ml of human PAI-1 as determined from a standard curve ranging from 0-100 ng/ml.

T1 sequence (P05121 24-402): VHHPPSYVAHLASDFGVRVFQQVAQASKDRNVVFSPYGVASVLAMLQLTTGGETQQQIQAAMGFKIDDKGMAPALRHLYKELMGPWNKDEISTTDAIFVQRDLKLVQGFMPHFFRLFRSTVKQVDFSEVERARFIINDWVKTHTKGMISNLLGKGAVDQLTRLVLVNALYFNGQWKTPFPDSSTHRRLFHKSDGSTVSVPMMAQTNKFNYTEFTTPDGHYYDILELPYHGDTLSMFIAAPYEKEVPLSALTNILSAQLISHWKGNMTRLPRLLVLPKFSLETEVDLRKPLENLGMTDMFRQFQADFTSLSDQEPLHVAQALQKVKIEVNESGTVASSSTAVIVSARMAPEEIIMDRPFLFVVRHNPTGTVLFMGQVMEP
Chain of human PAI-1 (P05121 24-402): as above

| melting point | Compound | also measured |
| --- | --- | --- |
| > 240 °C (dec.) | c1ccc2oc(-c3ccc(OCc4nnn[nH]4)c4ncccc34)cc2c1 (as salt: salt) [Compound 3, 5-(1-Benzofuran-2-yl)-8-(1H-tetraazol-5-ylmethoxy)quinoline] | – |
| > 273 °C (dec.) | c1ccc(-c2c(-c3ccc(OCc4nnn[nH]4)c4ncccc34)oc3ccccc23)cc1 (as salt: salt) [Compound 4, 5-(3-Phenyl-1-benzofuran-2-yl)-8-quinolinyl 1H-tetraazol-5-ylmethyl ether] | – |
| 226 to 228 °C (dec.) | CCCCCc1c(-c2ccc(OCc3nnn[nH]3)c3ncccc23)oc2ccccc12 (as salt: salt) [Compound 5, 5-(3-Pentyl-1-benzofuran-2-yl)-8-(1H-tetraazol-5-ylmethoxy)quinoline] | – |
| > 225 °C (dec.) | FC(F)(F)c1cc(OCc2nnn[nH]2)c2cc(-c3cc4ccccc4o3)ccc2n1 [Compound 1, 6-(1-Benzofuran-2-yl)-2-(trifluoromethyl)quinolin-4-yl 1H-tetraazol-5-ylmethyl ether] | pIC50 [1]: 4.41 |
| 207 to 209 °C (dec.) | CCCCCc1c(-c2ccc3nc(C(F)(F)F)cc(OCc4nnn[nH]4)c3c2)oc2ccccc12 [Compound 2, 6-(3-Pentyl-1-benzofuran-2-yl)-4-(1H-tetraazol-5-ylmethoxy)-2-(trifluoromethyl)-quinoline] | pIC50 (human PAI-1): 4.67 |
| – | c1ccc2oc(-c3ccc(OCc4nnn[nH]4)c4ncccc34)cc2c1 [Compound 3, 5-(1-Benzofuran-2-yl)-8-(1H-tetraazol-5-ylmethoxy)quinoline] | inhibition at 25 µM [1]: 20% |
| – | c1ccc(-c2c(-c3ccc(OCc4nnn[nH]4)c4ncccc34)oc3ccccc23)cc1 [Compound 4, 5-(3-Phenyl-1-benzofuran-2-yl)-8-quinolinyl 1H-tetraazol-5-ylmethyl ether] | inhibition at 25 µM [1]: 55% |
| – | CCCCCc1c(-c2ccc(OCc3nnn[nH]3)c3ncccc23)oc2ccccc12 [Compound 5, 5-(3-Pentyl-1-benzofuran-2-yl)-8-(1H-tetraazol-5-ylmethoxy)quinoline] | pIC50 [1]: 5.09 |
